The values that follow come from patent US7087623B2, “Thiazole and other heterocyclic ligands for mammalian dopamine, muscarinic and serotonin receptors and transporters, and methods of use thereof” (Sepracor Inc., priority 2001, dated 2006).

As a reminder, the IC50 is the concentration at which inhibition is half-maximal.

Each structure is given as a SMILES string. Read-outs that look alike come from different tables or passages of the source.

The target in experiment [1] is T1, human serotonin 5-HT2B receptor (Homo sapiens, UniProt P41595).
T1 construct: expressed in transfected cells; host or cells: CHO-K1
The experiment can be described thus: Radioligand binding assay, human 5-HT2B receptors ([3H]LSD). In outline:
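Membranes from CHO-K1 cells stably expressing human 5-HT2B, in modified Tris-HCl pH 7.4, bound with [3H]LSD. Non-specific binding defined with 10 μM serotonin; specific binding counted after filtration and three washes.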

The target of experiment [2] is T2, human serotonin 5-HT6 receptor (Homo sapiens, UniProt P50406).
T2 construct: expressed in transfected cells; host or cells: HeLa/E6-7
Put plainly: Radioligand binding assay, human 5-HT6 receptors ([3H]LSD). In outline: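 Membranes from HeLa/E6–7 cells stably expressing human 5-HT6, in modified Tris-HCl pH 7.4, incubated (30 μg) with 1.5 nM [3H]LSD for 120 min at 37° C. Non-specific binding defined with 5 μM 5-HT; bound ligand measured by filtration and counting.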

For experiment [3], the target named is T3, human dopamine transporter (Homo sapiens, UniProt Q01959).
T3 construct: expressed in transfected cells; host or cells: CHO-K1
Put plainly: Binding to human dopamine transporter ([125I]RTI-55). Here is the method:
CHO-K1 cell membranes stably transfected with a plasmid encoding the human dopamine transporter were prepared in modified Tris-HCl pH 7.4 buffer using standard techniques. […] Non-specific binding was estimated in the presence of 10 μM nomifensine. […] Trends. […]

Experiment [4] concerns the target T4, human muscarinic M1 receptor (Homo sapiens, UniProt P11229).
T4 construct: expressed in transfected cells; host or cells: BSR-M1H
T4 sequence (P11229 1-460): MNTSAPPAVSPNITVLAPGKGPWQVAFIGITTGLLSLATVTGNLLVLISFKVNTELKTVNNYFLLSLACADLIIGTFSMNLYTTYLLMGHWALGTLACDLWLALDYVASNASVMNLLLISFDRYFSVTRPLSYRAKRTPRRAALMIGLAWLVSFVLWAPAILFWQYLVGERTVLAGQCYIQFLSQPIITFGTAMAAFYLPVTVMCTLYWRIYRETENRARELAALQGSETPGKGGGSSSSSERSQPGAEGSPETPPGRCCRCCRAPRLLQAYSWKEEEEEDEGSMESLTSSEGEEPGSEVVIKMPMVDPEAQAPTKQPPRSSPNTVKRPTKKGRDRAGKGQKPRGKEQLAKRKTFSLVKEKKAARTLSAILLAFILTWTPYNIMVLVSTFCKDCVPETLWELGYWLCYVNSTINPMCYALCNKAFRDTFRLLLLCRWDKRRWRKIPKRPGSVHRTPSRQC
The experiment can be described thus: Binding to human muscarinic M1 receptors ([3H]N-methylscopolamine). How it is done: This assay measures binding of [^3H]N-methylscopolamine to human muscarinic M1 receptors. BSR-M1H cells transfected with a plasmid encoding the human muscarinic M1 receptor were used to prepare membranes in modified Tris-HCl pH 7.4 buffer using standard techniques. A 25 μg aliquot of membrane was incubated with 0.29 nM [^3H]N-methylscopolamine for 60 minutes at 25° C. Non-specific binding was estimated in the presence of 1 μM atropine. Membranes were filtered and washed 3 times and the filters were counted to determine [^3H]N-methylscopolamine specifically bound. See Buckley, N. J., Bonner, T. I., Buckley, C. M. and Brann, M. R. Antagonist binding properties of five cloned muscarinic receptors expressed in CHO-K1 cells. Mol. Pharmacol. 35: 469–476, 1989; Luthin, G. R. and Wolfe, B. B. Comparison of [^3H]pirenzepine and [^3H]quinuclidinylbenzilate binding to muscarine cholinergic receptors in rat brain. J. Pharmacol. Exp. Ther. 228: 648–665, 1984; and Watson, M., Yamamura, H. I. and Roeske, W. R. A unique regulatory profile and regional distribution of [^3H]pirenzepine binding in the rat provide evidence for distinct M1 and M2 muscarinic receptor subtypes. Life. Sci. 32: 3001–3011, 1983.
The human 5-HT2a and 5-HT2b screens were conducted according to Bonhaus, D. W. et al. Br. J. Pharmacol. 1995, 115, 622. The human […], W. A. et al. J. Neurochem. 1997, 69, 1449. The human 5-HT6 screen was conducted according to Monsama, F. J. et al. Mol. Pharmacol. 1993, 43, 320. The assay to human D3 receptors was conducted according to Sokoloff, P. et al. Nature 1990, 347;146. The human dopamine transporter assay was conducted according to Gu, H. et. al. J. Biol. Chem. 1994, 269 (10);7124; and Giros, B. et al. Trends. Pharmacol. Sci. 1993, 14: 43. The human muscarinic M1–M4 screens were conducted according to Buckley N. J. et al. Mol. Pharmacol. 1989, 35:469.
The human dopamine transporter assay was conducted according to Gu, H. et. al. J. Biol. Chem. 1994, 269 (10);7124 and Giros, B. et al. Trends. Pharmacol. Sci. 1993, 14: 43. The human muscarinic M1–M4 screens were conducted according to Buckley N. J. et al. Mol. Pharmacol. 199, 35:469

Where [5] appears, read: human 5-HT2b, Example 16 table, read-out: IC50 (nM) 5-HT2b.
[6] abbreviates: human 5-HT6, Example 16 table, read-out: IC50 (nM) 5-HT6.
Where [7] appears, read: human, Example 101 table, read-out: IC50 (nM) DAT.
The mark [8] stands for this setting: human, Example 101 table, read-out: IC50 (nM) M1.
The mark [9] stands for this setting: human, Example 100 table, read-out: IC50 (nM) 5-HT6.
Setting [10] is: human, Example 100 table, read-out: IC50 (nM) DAT.
Setting [11] is: human, Example 100 table, read-out: IC50 (nM) M1.
Where [12] appears, read: human, Example 100 table, read-out: IC50 (nM) 5-HT2B.

T1 sequence (P41595 whole entry): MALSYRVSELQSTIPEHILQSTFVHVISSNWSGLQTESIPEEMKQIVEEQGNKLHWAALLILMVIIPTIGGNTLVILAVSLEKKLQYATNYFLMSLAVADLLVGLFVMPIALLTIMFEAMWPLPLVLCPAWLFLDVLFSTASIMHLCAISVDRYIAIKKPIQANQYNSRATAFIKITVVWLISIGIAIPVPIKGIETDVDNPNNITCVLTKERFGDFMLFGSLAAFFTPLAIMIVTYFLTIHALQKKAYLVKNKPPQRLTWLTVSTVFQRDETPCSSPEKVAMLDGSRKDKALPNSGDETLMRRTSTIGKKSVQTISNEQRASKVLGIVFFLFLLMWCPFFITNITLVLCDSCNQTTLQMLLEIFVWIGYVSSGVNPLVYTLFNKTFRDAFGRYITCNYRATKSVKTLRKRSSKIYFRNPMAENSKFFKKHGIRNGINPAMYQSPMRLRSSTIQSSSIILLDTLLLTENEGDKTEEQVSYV
T3 sequence (Q01959 whole entry): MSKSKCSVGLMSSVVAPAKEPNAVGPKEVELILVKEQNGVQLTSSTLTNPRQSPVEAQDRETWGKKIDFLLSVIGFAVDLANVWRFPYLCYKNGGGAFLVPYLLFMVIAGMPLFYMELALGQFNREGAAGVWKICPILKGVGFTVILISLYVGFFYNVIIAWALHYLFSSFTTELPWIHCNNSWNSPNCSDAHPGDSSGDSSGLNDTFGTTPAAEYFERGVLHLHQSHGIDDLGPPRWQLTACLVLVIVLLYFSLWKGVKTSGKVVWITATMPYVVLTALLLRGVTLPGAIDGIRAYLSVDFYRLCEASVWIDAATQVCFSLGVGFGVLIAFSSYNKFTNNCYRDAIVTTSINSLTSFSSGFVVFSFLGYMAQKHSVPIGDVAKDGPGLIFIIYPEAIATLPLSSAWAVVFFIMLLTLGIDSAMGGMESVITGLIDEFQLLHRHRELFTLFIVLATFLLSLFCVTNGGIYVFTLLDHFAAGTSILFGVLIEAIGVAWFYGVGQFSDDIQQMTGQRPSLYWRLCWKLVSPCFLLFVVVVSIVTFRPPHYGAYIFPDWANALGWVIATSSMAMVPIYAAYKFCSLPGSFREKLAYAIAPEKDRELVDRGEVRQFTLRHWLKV
T2 sequence (P50406 whole entry): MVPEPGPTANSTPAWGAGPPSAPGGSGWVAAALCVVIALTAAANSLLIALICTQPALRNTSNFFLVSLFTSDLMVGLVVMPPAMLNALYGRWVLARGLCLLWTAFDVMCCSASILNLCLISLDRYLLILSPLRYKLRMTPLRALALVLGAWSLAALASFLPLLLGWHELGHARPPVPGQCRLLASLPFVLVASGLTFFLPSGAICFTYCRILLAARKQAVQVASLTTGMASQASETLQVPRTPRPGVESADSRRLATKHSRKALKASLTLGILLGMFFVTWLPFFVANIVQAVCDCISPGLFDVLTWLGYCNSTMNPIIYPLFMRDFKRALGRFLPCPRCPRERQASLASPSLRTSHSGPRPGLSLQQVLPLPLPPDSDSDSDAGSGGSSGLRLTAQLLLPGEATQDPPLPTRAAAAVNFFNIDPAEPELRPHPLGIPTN

Consider `Clc1ccc(C2(c3csc(N4CCNCC4)n3)CCOCC2)cc1` [Compound 37], for which the IC50 in experiment [1] (setting [5]) is more than 1000 nM; in experiment [2] (setting [6]) it was less than 100 nM; in experiment [3] (setting [7]) it was more than 1000 nM; in experiment [4] (setting [8]), less than 500 nM.
On to `CN1CCN(c2nc(C3(c4ccccc4F)CCOCC3)cs2)CC1` [Compound 112], for which the IC50 in experiment [2] (setting [9]) was less than 100 nM; in experiment [3] (setting [10]), more than 1000 nM; in experiment [4] (setting [11]), less than 1000 nM.
Take `CN1CCN(c2nc(C3(c4ccccc4)CCOCC3)cs2)CC1` [Compound 59]: the IC50 in experiment [1] was more than 1000 nM; in experiment [2] (IC50 (nM) 5-HT6, human 5-HT6, Example 16 table), less than 100 nM; in experiment [3], more than 1000 nM; in experiment [4], more than 1000 nM.
In the case of `CN1CCN(c2nc(C3(c4csc5ccc(Cl)cc45)CCOCC3)cs2)CC1` [Compound 36], the half-inhibitory concentration (IC50) in experiment [1] (setting [5]) is less than 1000 nM; in experiment [2] (setting [6]), less than 100 nM; in experiment [3] (setting [7]), more than 1000 nM; in experiment [4] (setting [8]) it was more than 1000 nM.
As to `CN1CCCC1CCNc1nc(C2(c3ccccc3F)CCCCC2)cs1` (single isomer, unassigned) [Compound 130, {4-[1-(2-fluorophenyl)-cyclohexyl]-thiazol-2-yl}-[2-(1-methyl-pyrrolidin-2-yl)-ethyl]-amine], the concentration for half-maximal inhibition (IC50) was less than 100 nM in experiment [1] (setting [12]), less than 100 nM in experiment [2] (setting [9]), more than 1000 nM in experiment [3] (setting [10]) and more than 1000 nM in experiment [4] (setting [11]).
As to `CN1CCCC1CCNc1nc(C2(c3ccccc3F)CCCCC2)cs1` (racemic) [Compound 128, {4-[1-(2-fluorophenyl)-cyclohexyl]-thiazol-2-yl}-[2-(1-methyl-pyrrolidin-2-yl)-ethyl]-amine], the IC50 in experiment [1] (setting [12]) is less than 1000 nM; in experiment [2] (setting [9]) it was less than 100 nM; in experiment [3] (setting [10]), more than 1000 nM; in experiment [4] (setting [11]), less than 1000 nM.
Regarding `CN1CCN(c2nc(C3(c4ccccc4F)CCCC3)cs2)CC1` [Compound 93], the 50% inhibitory concentration (IC50) is less than 1000 nM in experiment [1] (setting [5]), less than 100 nM in experiment [2] (setting [6]), more than 1000 nM in experiment [3] (setting [7]) and less than 500 nM in experiment [4] (setting [8]).
For `CN1CCN(c2nc(C3(c4cccc(Cl)c4)CCOCC3)cs2)CC1` [Compound 63], in that order: less than 1000 nM, less than 100 nM, more than 1000 nM and more than 1000 nM.
For `CN1CCN(c2nc(C3(c4ccccc4F)CCCCC3)cs2)CC1` [Compound 83], in that order: less than 100 nM, less than 100 nM, more than 1000 nM and less than 500 nM.
